Reference: patent publication US20040209318A1, “Reagents and methods for the detection and quantification of vancomycin in bilogical fluids” (priority 1995, published 2004)
Where two headings read alike, the source gives them in different places.

Key:
[1] = molecular target: anti-vancomycin Fab fragment; experiment: BIAcore solution competition, equilibrium dissociation constant; assay type: binding, mouse
Description: Biosensor surfaces were regenerated after each injection with successive 1 minute pulses of 6 M, 6M, and 1.5 M guanidine hydrochloride. Initial rates of binding of anti-vancomycin Fab fragment to the biosensor surface were measured over a 15 second window beginning 20 seconds postinjection. Data was evaluated by non-linear regression analysis using the solution affinity model built into BIAevaluation 3.0 software (BIAcore, Inc).
The binding affinities of several vancomycin analogs and tracers for anti-vancomycin Fab fragment were determined from solution competition experiments carried out on a BIAcore 2000. Initially, known concentrations of anti-vancomycin Fab fragment (0-22 nM) were injected over the aminoalkyl vancomycin biosensor surface. The initial rate of binding for each anti-vancomycin Fab fragment concentration was obtained by averaging the observed binding rate over a […] window beginning 20 seconds post injection. Data from the first 20 seconds of each sensorgram were omitted due to sample dispersion effects at the start of injections. A plot of initial binding rate versus concentration of anti-vancomycin Fab fragment was fit using a 4-parameter logistic (general model in BIAevaluation 3.0) providing a standard curve. […] A fixed concentration of anti-vancomycin Fab fragment (20 nM) was then mixed with twelve concentrations of each vancomycin analog or tracer and allowed to reach equilibrium. The equilibrium mixtures were individually injected over the aminoalkyl vancomycin biosensor surface, and the concentration of free anti-vancomycin Fab fragment remaining was quantitated by determination of the initial rate of binding to the biosensor surface as described above. A plot of free anti-vancomycin Fab fragment versus total concentration of added analog or tracer provides a competition curve. […] The data points represent the experimentally determined concentrations of free anti-vancomycin Fab fragment in equilibrium solutions at a given concentration of soluble analog or tracer. The curves represent the best nonlinear fit of the data using equation 1 (solution affinity model in BIAevaluation software) below: [formula]
where Fabτ is the concentration of free anti-vancomycin Fab fragment in equilibrium solutions, Fabτ is the total concentration of anti-vancomycin Fab fragment in solution (20 nM), A is the total concentration of added vancomycin analog or tracer, and KD is the equilibrium dissociation constant for the binding of the vancomycin analog or tracer to anti-vancomycin Fab fragment in solution.

[2] = 0.5 μM
Description: (§1) Briefly, a continuous flow of HBS buffer at 10 μL/minute was initiated over the biosensor surface. The carboxymethylated dextran matrix on the sensor surface was activated by a 3.5 minute injection of a solution of 0.05 M HNS and 0.2 M EDAC. […] Blank surfaces were generated under identical conditions omitting the ligand immobilization step.
For these studies, an (N^ε-acetyl)KDADA tripeptide containing an aminocaproate linker from the amino terminus was immobilized via amine coupling to an activated carboxymethyl dextran surface of a CM-5 sensor chip.

[3] = tested on: anti-vancomycin Fab fragment; conditions: substance immobilized on CM-5 sensor chip
Description: as §1
Initial attempts to generate a biosensor surface involved immobilization of vancomycin to the activated carboxymethyl dextran surface of a CM-5 sensor chip through the primary amine of the vancosamine sugar moiety.

[4] = cited from earlier work
[5] = in solution, 20 nM Fab fragment, read-out: Equilibrium Dissociation Constant (KD)

| SMILES | Kd [1, 5] | Kd ([1]; in the presence of (Nα,Nε-diacetyl)KDADA tripeptide (500 μM), read-out: KD) | instrumental response at equilibrium [2] | binding capacity (Rumax) of biosensor surface [3] | half life ([4]; normal patients) | half life ([4]; patients with renal insufficiency) |
| --- | --- | --- | --- | --- | --- | --- |
| CNC(CC(C)C)C(=O)NC1C(=O)NC(CC(N)=O)C(=O)NC2C(=O)NC3C(=O)NC(C(=O)NC(C(=O)O)c4cc(O)cc(O)c4-c4cc3ccc4O)C(O)c3ccc(c(Cl)c3)Oc3cc2cc(c3OC2OC(CO)C(O)C(O)C2OC2CC(C)(NC(=O)CCCN(C(=O)c3c4ccccc4[n+](CCCS(=O)(=O)[O-])c4ccccc34)S(=O)(=O)c3ccc(C)cc3)C(O)C(C)O2)Oc2ccc(cc2Cl)C1O (centres unmarked) [compound 15] | 1200 ± 100 nM | – | – | – | – | – |
| CC(C)CC(C(=O)NC1C(=O)NC(CC(N)=O)C(=O)NC2C(=O)NC3C(=O)NC(C(=O)NC(C(=O)O)c4cc(O)cc(O)c4-c4cc3ccc4O)C(O)c3ccc(c(Cl)c3)Oc3cc2cc(c3OC2OC(CO)C(O)C(O)C2OC2CC(C)(N)C(O)C(C)O2)Oc2ccc(cc2Cl)C1O)N(C)C(=O)CCCCC1SCC2NC(=O)NC21 (centres unmarked) [compound 16] | ≤ 0.2 nM | – | – | – | – | – |
| CN[C@H](CC(C)C)C(=O)N[C@H]1C(=O)N[C@@H](CC(N)=O)C(=O)N[C@H]2C(=O)N[C@H]3C(=O)N[C@H](C(=O)N[C@H](C(=O)O)c4cc(O)cc(O)c4-c4cc3ccc4O)[C@H](O)c3ccc(c(Cl)c3)Oc3cc2cc(c3O[C@@H]2O[C@H](CO)[C@@H](O)[C@H](O)[C@H]2O[C@H]2C[C@](C)(N)[C@H](O)[C@H](C)O2)Oc2ccc(cc2Cl)[C@H]1O [vancomycin (1), vancomycin] | ≤ 0.2 nM | ≤ 0.2 nM | approximately 50 Rus | minimal binding capacity | 5 to 11 h | 48 to 120 h |
